In ChEMBL document CHEMBL6127131, “Design, Synthesis, and Biological Evaluation of New Selective PDE4 Inhibitors for Topical Treatment of Psoriasis” (J Med Chem, 2024):
pIC50: −log10 of the molar value. Activity calls are given as the source filed them. The calls are words filed in the database; no cut-off is given here.

Assays:
[1] = molecular target: T1, 3',5'-cyclic-AMP phosphodiesterase 4D (Homo sapiens, UniProt Q08499); assay: Inhibition of PDE4D (unknown origin)
[2] = Metabolic stability in human liver microsomes assessed as half-life preincubated for 2 hrs followed by NADPH regenerating agent addition and measured upto 4 hrs by LC-MS analysis; type: ADME, Microsome; conditions: time < 6 hrs
RAW264.7 [3] = assay: Anti-inflammatory activity against LPS induced mouse RAW264.7 cells assessed as reduction in TNFalpha secretion incubated for 24 hrs by ELISA; type: functional, cell-based; conditions: RAW264.7, 24 h
RAW264.7 [4] = assay: Anti-inflammatory activity against LPS induced mouse RAW264.7 cells assessed as reduction in IL-6 secretion incubated for 24 hrs by ELISA; type: functional, cell-based; conditions: RAW264.7, 24 h
[5] = Cytotoxicity against mouse RAW264.7 cells incubated for 24 hrs by CCK8 assay; type: toxicity, cell-based
HaCaT = assay: Anti-inflammatory activity against M5 induced human HaCaT cells assessed as reduction in TNFalpha secretion incubated for 24 hrs by ELISA; type: functional, cell-based
[6] = Cytotoxicity against human HaCaT cells incubated for 24 hrs by CCK8 assay; type: toxicity, cell-based
[7] = molecular target: 3',5'-cyclic-AMP phosphodiesterase 4A (Homo sapiens, UniProt P27815); assay: Inhibition of PDE4A (unknown origin)
Chain of 3',5'-cyclic-AMP phosphodiesterase 4A (P27815 whole entry): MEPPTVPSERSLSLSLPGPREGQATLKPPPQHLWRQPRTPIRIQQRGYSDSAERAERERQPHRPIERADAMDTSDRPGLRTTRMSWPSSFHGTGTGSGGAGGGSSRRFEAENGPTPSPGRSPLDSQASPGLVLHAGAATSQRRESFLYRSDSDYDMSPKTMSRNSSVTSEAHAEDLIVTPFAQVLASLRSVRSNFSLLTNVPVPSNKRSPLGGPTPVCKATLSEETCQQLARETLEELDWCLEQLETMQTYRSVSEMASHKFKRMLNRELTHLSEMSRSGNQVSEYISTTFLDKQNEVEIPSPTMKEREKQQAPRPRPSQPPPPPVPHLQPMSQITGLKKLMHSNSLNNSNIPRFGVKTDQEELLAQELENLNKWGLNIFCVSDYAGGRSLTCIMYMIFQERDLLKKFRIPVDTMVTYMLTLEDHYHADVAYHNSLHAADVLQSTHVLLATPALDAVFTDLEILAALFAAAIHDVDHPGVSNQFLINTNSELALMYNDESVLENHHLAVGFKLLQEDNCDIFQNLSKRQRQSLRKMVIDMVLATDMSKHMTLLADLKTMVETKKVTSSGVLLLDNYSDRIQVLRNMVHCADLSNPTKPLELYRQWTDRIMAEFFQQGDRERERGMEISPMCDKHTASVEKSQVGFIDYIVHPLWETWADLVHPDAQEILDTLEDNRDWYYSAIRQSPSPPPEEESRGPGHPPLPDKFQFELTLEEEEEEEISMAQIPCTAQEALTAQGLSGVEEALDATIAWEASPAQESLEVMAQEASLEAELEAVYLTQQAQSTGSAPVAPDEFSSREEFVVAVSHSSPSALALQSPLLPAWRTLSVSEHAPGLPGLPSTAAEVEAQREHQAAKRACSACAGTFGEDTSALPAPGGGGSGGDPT

[8] = molecular target: Cannabinoid receptor 1 (Homo sapiens) (UniProt P21554); assay: Inhibition of CB1 (unknown origin) at 10 uM relative to control
Chain of Cannabinoid receptor 1 (Homo sapiens) (P21554 whole entry): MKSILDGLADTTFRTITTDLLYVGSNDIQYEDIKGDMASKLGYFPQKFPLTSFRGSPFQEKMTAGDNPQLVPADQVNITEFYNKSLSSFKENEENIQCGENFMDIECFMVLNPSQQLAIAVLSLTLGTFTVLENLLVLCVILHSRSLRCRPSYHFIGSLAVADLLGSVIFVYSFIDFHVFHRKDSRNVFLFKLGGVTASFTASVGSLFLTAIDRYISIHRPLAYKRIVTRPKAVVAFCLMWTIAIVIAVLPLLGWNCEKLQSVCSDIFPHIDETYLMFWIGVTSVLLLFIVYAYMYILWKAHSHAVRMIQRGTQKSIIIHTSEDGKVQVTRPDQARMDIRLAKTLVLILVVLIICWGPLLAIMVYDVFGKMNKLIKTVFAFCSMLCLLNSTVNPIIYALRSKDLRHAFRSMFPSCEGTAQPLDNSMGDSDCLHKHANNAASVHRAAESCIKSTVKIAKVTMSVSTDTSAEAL

[9] = molecular target: 5-hydroxytryptamine receptor 1B (Homo sapiens) (UniProt P28222); assay: Inhibition of 5-HT1B (unknown origin) at 10 uM relative to control
Chain of 5-hydroxytryptamine receptor 1B (Homo sapiens) (P28222 whole entry): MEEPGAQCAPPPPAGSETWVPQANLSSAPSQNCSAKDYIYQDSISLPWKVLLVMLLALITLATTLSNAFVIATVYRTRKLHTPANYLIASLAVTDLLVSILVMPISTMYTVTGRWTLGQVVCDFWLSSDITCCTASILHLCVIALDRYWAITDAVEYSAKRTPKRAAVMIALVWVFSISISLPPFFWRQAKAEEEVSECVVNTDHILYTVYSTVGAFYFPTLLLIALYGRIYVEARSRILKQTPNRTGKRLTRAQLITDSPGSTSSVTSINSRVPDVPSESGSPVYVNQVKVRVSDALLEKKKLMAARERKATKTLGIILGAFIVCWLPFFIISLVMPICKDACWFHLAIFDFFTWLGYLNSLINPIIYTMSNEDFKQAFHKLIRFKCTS

[10] = molecular target: D(2) dopamine receptor (Homo sapiens) (UniProt P14416); assay: Inhibition of D2S (unknown origin) at 10 uM relative to control
Chain of D(2) dopamine receptor (Homo sapiens) (P14416 whole entry): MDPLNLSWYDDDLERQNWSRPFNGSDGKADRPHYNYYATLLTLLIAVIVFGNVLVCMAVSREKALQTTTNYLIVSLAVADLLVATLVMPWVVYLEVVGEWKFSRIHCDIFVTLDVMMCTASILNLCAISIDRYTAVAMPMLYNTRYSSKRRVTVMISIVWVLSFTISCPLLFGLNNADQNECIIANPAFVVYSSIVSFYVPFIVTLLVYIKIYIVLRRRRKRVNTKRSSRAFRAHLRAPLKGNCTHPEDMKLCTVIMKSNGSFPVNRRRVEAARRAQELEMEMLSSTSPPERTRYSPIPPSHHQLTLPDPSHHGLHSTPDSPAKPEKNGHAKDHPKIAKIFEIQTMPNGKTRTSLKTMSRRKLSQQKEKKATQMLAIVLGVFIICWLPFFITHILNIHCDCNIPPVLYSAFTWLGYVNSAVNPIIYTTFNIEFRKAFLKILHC

[11] = AUC(0 to t) in ICR(CD-1) mouse at 5 mg/kg, iv measured upto 24 hrs by LC-MS/MS analysis; type: ADME, organism-based; conditions: in vivo
[12] = AUC(0 to infinity) in ICR(CD-1) mouse at 5 mg/kg, iv measured upto 24 hrs by LC-MS/MS analysis; type: ADME, organism-based; conditions: in vivo
[13] = Initial plasma concentration in ICR(CD-1) mouse at 5 mg/kg, iv measured upto 24 hrs by LC-MS/MS analysis; type: ADME, organism-based
[14] = Half-life in ICR(CD-1) mouse at 5 mg/kg, iv measured upto 24 hrs by LC-MS/MS analysis; type: ADME, organism-based; conditions: in vivo
[15] = Apparent volume of distribution in ICR(CD-1) mouse at 5 mg/kg, iv measured upto 24 hrs by LC-MS/MS analysis; type: ADME, organism-based; conditions: in vivo, read-out: Vz
[16] = Clearance in ICR(CD-1) mouse at 5 mg/kg, iv measured upto 24 hrs by LC-MS/MS analysis; type: ADME, organism-based; conditions: in vivo
[17] = AUC(0 to t) in ICR(CD-1) mouse at 10 mg/kg, po measured upto 24 hrs by LC-MS/MS analysis; type: ADME, organism-based; conditions: in vivo
[18] = AUC(0 to infinity) in ICR(CD-1) mouse at 10 mg/kg, po measured upto 24 hrs by LC-MS/MS analysis; type: ADME, organism-based; conditions: in vivo
[19] = Cmax in ICR(CD-1) mouse at 10 mg/kg, po measured upto 24 hrs by LC-MS/MS analysis; type: ADME, organism-based; conditions: in vivo
[20] = Half-life in ICR(CD-1) mouse at 10 mg/kg, po measured upto 24 hrs by LC-MS/MS analysis; type: ADME, organism-based; conditions: in vivo
[21] = Tmax in ICR(CD-1) mouse at 10 mg/kg, po measured upto 24 hrs by LC-MS/MS analysis; type: ADME, organism-based; conditions: in vivo
[22] = Oral bioavailability in ICR(CD-1) mouse at 10 mg/kg measured upto 24 hrs by LC-MS/MS analysis; type: ADME, organism-based; conditions: in vivo
[23] = Drug concentration in ICR(CD-1) mouse blood at 1.2% administered topically and measured after 1 hr by LC-MS/MS analysis; type: ADME, tissue-based; conditions: topical or ocular, route top, read-out: Ct
[24] = Drug concentration in ICR(CD-1) mouse blood at 1.2% administered topically and measured after 2 hrs by LC-MS/MS analysis; type: ADME, tissue-based; conditions: topical or ocular, route top, read-out: Ct
[25] = Metabolic stability in monkey liver microsomes assessed as half-life preincubated for 2 hrs followed by NADPH regenerating agent addition and measured upto 4 hrs by LC-MS analysis; type: ADME, Macaca mulatta, Microsome; conditions: rhesus monkey, time < 6 hrs
[26] = Metabolic stability in dog liver microsomes assessed as half-life preincubated for 2 hrs followed by NADPH regenerating agent addition and measured upto 4 hrs by LC-MS analysis; type: ADME, Canis lupus familiaris, Microsome; conditions: time < 6 hrs
[27] = Metabolic stability in mouse liver microsomes assessed as half-life preincubated for 2 hrs followed by NADPH regenerating agent addition and measured upto 4 hrs by LC-MS analysis; type: ADME, Microsome; conditions: time < 6 hrs
[28] = Metabolic stability in rat liver microsomes assessed as half-life preincubated for 2 hrs followed by NADPH regenerating agent addition and measured upto 4 hrs by LC-MS analysis; type: ADME, Microsome; conditions: time < 6 hrs
Mus musculus [29] = organism: Mus musculus; assay: Antiinflammatory activity against imiquimod-induced psoriasis in BALB/c mouse model assessed as improvement in clinical features of skin lesions pretreated with IMQ for 4 hrs followed by compound addition once daily from day 2 to 8; type: functional, organism-based; conditions: dose 0.3-1.2 %, time 7.0 day
[30] = Toxicity in BALB/c mouse assessed as body weight loss at 0.3 to 1.2% administration as ointment once a day from day 2 to 8; conditions: in vivo, topical_or_ocular, 168 h, dose 0.3-1.2 %, time 7 day
Mus musculus [31] = assay: Antiinflammatory activity against imiquimod-induced psoriasis in BALB/c mouse model assessed as reduction in spleen enlargement at 0.3 to 1.2% administration as ointment pretreated with IMQ for 4 hrs followed by compound addition once daily from day 2 to 8; type: functional, organism-based; conditions: dose 0.3-1.2 %, time 7.0 day
Mus musculus [32] = assay: Antiinflammatory activity against imiquimod-induced psoriasis in BALB/c mouse model assessed as reduction in IL-1beta protein level at 1.2% administration as ointment pretreated with IMQ for 4 hrs followed by compound addition once daily from day 2 to 8 by ELISA; type: functional, organism-based; conditions: time 7.0 day
Mus musculus [33] = assay: Antiinflammatory activity against imiquimod-induced psoriasis in BALB/c mouse model assessed as reduction in IL-17A protein level at 1.2% administration as ointment pretreated with IMQ for 4 hrs followed by compound addition once daily from day 2 to 8 by ELISA; type: functional, organism-based; conditions: time 7.0 day
Mus musculus [34] = assay: Antiinflammatory activity against imiquimod-induced psoriasis in BALB/c mouse model assessed as reduction in skin thickness at 0.3 to 1.2% administration as ointment pretreated with IMQ for 4 hrs followed by compound addition once daily from day 2 to 8 by H and E staining based assay; type: functional, organism-based; conditions: dose 0.3-1.2 %, time 7.0 day
Mus musculus [35] = assay: Antiinflammatory activity against imiquimod-induced psoriasis in BALB/c mouse model assessed as reduction in immune cell infiltration at 0.3 to 1.2% administration as ointment pretreated with IMQ for 4 hrs followed by compound addition once daily from day 2 to 8 by H and E staining based assay; type: functional, organism-based; conditions: dose 0.3-1.2 %, time 7.0 day
RAW264.7 [36] = assay: Downregulation of IL-1beta mRNA expression in LPS induced mouse RAW264.7 cells at 5 to 20 uM preincubated for 12 hrs followed by LPS stimulation for 4 hrs by RT-qPCR analysis; type: functional, cell-based; conditions: dose 5-20 µM, time 16.0 hrs
RAW264.7 [37] = assay: Downregulation of IL-6 mRNA expression in LPS induced mouse RAW264.7 cells at 5 to 20 uM preincubated for 12 hrs followed by LPS stimulation for 4 hrs by RT-qPCR analysis; type: functional, cell-based; conditions: dose 5-20 µM, time 16.0 hrs
RAW264.7 [38] = assay: Downregulation of IL-17A mRNA expression in LPS induced mouse RAW264.7 cells at 5 to 20 uM preincubated for 12 hrs followed by LPS stimulation for 4 hrs by RT-qPCR analysis; type: functional, cell-based; conditions: dose 5-20 µM, time 16.0 hrs
RAW264.7 [39] = assay: Downregulation of TNFalpha mRNA expression in LPS induced mouse RAW264.7 cells at 5 to 20 uM preincubated for 12 hrs followed by LPS stimulation for 4 hrs by RT-qPCR analysis; type: functional, cell-based; conditions: dose 5-20 µM, time 16.0 hrs
RAW264.7 [40] = assay: Upregulation of EPAC1 protein expression in mouse RAW264.7 cells at 5 to 20 uM preincubated for 12 hrs followed by LPS stimulation for 4 hrs by Western blotting analysis; type: functional, cell-based; conditions: dose 5-20 µM, time 16.0 hrs
RAW264.7 [41] = assay: Upregulation of p-CREB1/CREB1 protein ratio in mouse RAW264.7 cells at 5 to 20 uM preincubated for 12 hrs followed by LPS stimulation for 4 hrs by Western blotting analysis; type: functional, cell-based; conditions: dose 5-20 µM, time 16.0 hrs
[42] = molecular target: T1, 3',5'-cyclic-AMP phosphodiesterase 4D; assay: Inhibition of PDE4D7 (unknown origin)

T1 sequence (Q08499 whole entry): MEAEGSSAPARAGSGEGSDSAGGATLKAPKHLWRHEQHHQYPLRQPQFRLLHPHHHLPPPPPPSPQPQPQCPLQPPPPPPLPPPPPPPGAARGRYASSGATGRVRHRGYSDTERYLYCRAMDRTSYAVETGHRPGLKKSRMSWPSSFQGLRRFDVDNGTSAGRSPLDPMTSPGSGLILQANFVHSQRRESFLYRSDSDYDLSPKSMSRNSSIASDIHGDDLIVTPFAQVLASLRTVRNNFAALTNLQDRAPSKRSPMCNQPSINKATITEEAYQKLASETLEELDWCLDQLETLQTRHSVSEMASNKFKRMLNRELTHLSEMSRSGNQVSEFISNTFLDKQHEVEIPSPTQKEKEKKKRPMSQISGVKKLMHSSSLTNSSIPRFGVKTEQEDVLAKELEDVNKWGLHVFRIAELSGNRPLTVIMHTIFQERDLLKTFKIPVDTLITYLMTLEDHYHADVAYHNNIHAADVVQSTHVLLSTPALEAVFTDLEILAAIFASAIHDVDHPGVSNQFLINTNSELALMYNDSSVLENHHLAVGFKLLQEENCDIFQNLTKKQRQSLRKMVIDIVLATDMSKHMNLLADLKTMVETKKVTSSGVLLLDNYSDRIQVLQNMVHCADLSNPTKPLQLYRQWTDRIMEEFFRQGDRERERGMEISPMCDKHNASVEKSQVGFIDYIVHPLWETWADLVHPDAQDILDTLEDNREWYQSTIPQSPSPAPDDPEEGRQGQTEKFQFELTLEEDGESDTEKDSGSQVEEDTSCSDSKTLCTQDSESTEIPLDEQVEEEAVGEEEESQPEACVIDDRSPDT

Question: With CCOc1cc([C@@H](CS(C)(=O)=O)N2C(=O)c3csc(NC(C)=O)c3C2=O)ccc1OC as the molecule, how does the pIC50 [1] read?
Answer: 6.94

Question: Which half-life [2] does the source give for O=C(NCc1ncccn1)c1csc(-c2ccc(OC(F)F)c(OCC3CC3)c2)n1 here?
Answer: 296 min

Question: And the pIC50 (RAW264.7 [3])?
Answer: 4.47

Question: What about the pIC50 (RAW264.7 [4]) of the same molecule?
Answer: 4.39

Question: What about the CC50 at 24 h [5] of the same molecule?
Answer: > 50 µM

Question: What about the pIC50 (HaCaT) of the same molecule?
Answer: 4.41

Question: What about the CC50 at 24 h [6] of the same molecule?
Answer: > 50 µM

Question: What about the pIC50 [7] of the same molecule?
Answer: 8.15

Question: And the inhibition [8]?
Answer: 51.4%

Question: What about the inhibition [9] of the same molecule?
Answer: 56.6%

Question: And the inhibition [10]?
Answer: 53.8%

Question: And the AUC(0-t) at 24 h [11]?
Answer: 0.619 µg·h/mL

Question: And the AUC(0-inf) [12]?
Answer: 0.62 µg·h/mL

Question: What about the C0 at 24 h [13] of the same molecule?
Answer: 5.24 µg/mL

Question: And the half-life [14]?
Answer: 16.2 min

Question: And the Vd [15]?
Answer: 3.12 L/kg

Question: And the clearance [16]?
Answer: 8.09 L/h/kg

Question: What about the AUC(0-t) at 24 h [17] of the same molecule?
Answer: 0.041 µg·h/mL

Question: And the AUC(0-inf) [18]?
Answer: 0.051 µg·h/mL

Question: And the Cmax [19]?
Answer: 0.031 µg/mL

Question: What about the half-life [20] of the same molecule?
Answer: 133 min

Question: What about the Tmax [21] of the same molecule?
Answer: 64.8 min

Question: And the bioavailability [22]?
Answer: 3.31%

Question: And the concentration at 1 h [23]?
Answer: 0.00034 µg/mL

Question: What about the concentration at 2 h [24] of the same molecule?
Answer: 0.00035 µg/mL

Question: And the half-life [25]?
Answer: 25.6 min

Question: And the half-life [26]?
Answer: 62.1 min

Question: And the half-life [27]?
Answer: 28.6 min

Question: What about the half-life [28] of the same molecule?
Answer: 25.3 min

Question: And the Activity (Mus musculus [29])?
Answer: Dose-Dependent Effect

Question: What about the Activity [30] of the same molecule?
Answer: Non-Toxic

Question: And the Activity (Mus musculus [31])?
Answer: Active

Question: And the Activity (Mus musculus [32])?
Answer: Active

Question: And the Activity (Mus musculus [33])?
Answer: Active

Question: What about the Activity (Mus musculus [34]) of the same molecule?
Answer: Active

Question: What about the Activity (Mus musculus [35]) of the same molecule?
Answer: Active

Question: And the Activity (RAW264.7 [36])?
Answer: Active

Question: What about the Activity (RAW264.7 [37]) of the same molecule?
Answer: Active

Question: What about the Activity (RAW264.7 [38]) of the same molecule?
Answer: Active

Question: And the Activity (RAW264.7 [39])?
Answer: Active

Question: What about the Activity (RAW264.7 [40]) of the same molecule?
Answer: Active

Question: And the Activity (RAW264.7 [41])?
Answer: Active

Question: With N#Cc1ccc(Oc2ccc3c(c2)COB3O)cc1 [CRISABOROLE] as the molecule, how does the pIC50 [42] read?
Answer: 6.77
